This test relates to P388 leukemia ip, CD2F1 mice, survival T/C. In words: NCI In Vivo Anticancer Drug Screen. Data for tumor model P388 Leukemia (intraperitoneal) in CD2F1 (CDF1) mice. The conditions noted are these: endpoint: median survival time, higher = longer survival. Summed up:
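Mice carrying the transplanted tumor received test compound or vehicle. Survival was recorded in each group, and the value is the treated-group measurement divided by that of the vehicle-treated control group.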

The mark [1] stands for this setting: dose: 50.0 mg/kg/injection, schedule: Q01DX009 (ip), vehicle: Klucel (hydroxypropylcellulose) (HPC).
Setting [2] is: dose: 6.25 mg/kg/injection, schedule: Q01DX009 (ip), vehicle: saline.
Setting [3] is: dose: 50.0 mg/kg/injection, schedule: Q01DX009 (ip), vehicle: saline with Tween-80.
The mark [4] stands for this setting: dose: 100.0 mg/kg/injection, schedule: Q01DX009 (ip), vehicle: saline with Tween-80.
Setting [5] is: dose: 200.0 mg/kg/injection, schedule: Q01DX009 (ip), vehicle: saline with Tween-80.
Setting [6] is: dose: 50.0 mg/kg/injection, schedule: Q01DX009 (ip), vehicle: saline.
Where [7] appears, read: dose: 100.0 mg/kg/injection, schedule: Q01DX009 (ip), vehicle: saline.
The mark [8] stands for this setting: dose: 200.0 mg/kg/injection, schedule: Q01DX009 (ip), vehicle: saline.
Where [9] appears, read: dose: 25.0 mg/kg/injection, schedule: Q01DX009 (ip), vehicle: saline with Tween-80.
Where [10] appears, read: dose: 50.0 mg/kg/injection, schedule: Q01DX005 (ip), vehicle: Klucel (hydroxypropylcellulose) (HPC).
[11] abbreviates: dose: 100.0 mg/kg/injection, schedule: Q01DX005 (ip), vehicle: Klucel (hydroxypropylcellulose) (HPC).
Setting [12] is: dose: 12.5 mg/kg/injection, schedule: Q01DX005 (ip), vehicle: Klucel (hydroxypropylcellulose) (HPC).
Setting [13] is: dose: 25.0 mg/kg/injection, schedule: Q01DX005 (ip), vehicle: Klucel (hydroxypropylcellulose) (HPC).

Each structure is given as a SMILES string. Where “and” joins values, the source holds several entries; their conditions need not be identical. Equal values may be shown once. Toxic doses and inconclusive results are not listed.

Turning to `CCSC(=S)S(=O)(=O)c1ccc(C)cc1`, the T/C is, setting by setting: (dose: 12.5 mg/kg/injection, schedule: Q01DX009 (ip), vehicle: Klucel (hydroxypropylcellulose) (HPC)) 120 % of control; (dose: 25.0 mg/kg/injection, schedule: Q01DX009 (ip), vehicle: Klucel (hydroxypropylcellulose) (HPC)) 105 % of control; under setting [1], 115 % of control and 123 % of control.

As for `COc1cc(/C=C/Cc2cc3c(cc2OCCO)OCO3)cc(OC)c1OC`, the T/C (dose: 60.0 mg/kg/injection, schedule: Q01DX005 (ip), vehicle: saline with Tween-80) was 94 % of control; the T/C (dose: 120.0 mg/kg/injection, schedule: Q01DX005 (ip), vehicle: saline with Tween-80) was 92 % of control; the T/C (dose: 240.0 mg/kg/injection, schedule: Q01DX005 (ip), vehicle: saline with Tween-80) was 101 % of control.

`O=[N+]([O-])C(Br)(CO)CO`: the T/C reads like this: (dose: 3.12 mg/kg/injection, schedule: Q01DX009 (ip), vehicle: saline) 100 % of control; under setting [2], 103 % of control; (dose: 12.5 mg/kg/injection, schedule: Q01DX009 (ip), vehicle: saline) 114 % of control and 118 % of control.

`OCCN(CCO)c1cc(/C=C/c2c3ccccc3cc3ccccc23)nc2ccccc12`: the T/C under setting [3] was 89 % of control, the T/C under setting [4] is 93 % of control and the T/C under setting [5] is 92 % of control.

With `C1CCC2[N-]CC3CCCCC3[N-]CC3CCCCC3[N-]CC3CCCCC3[N-]CC2C1.[Ni+2].[O-][Cl+3]([O-])([O-])O` (configuration not stated), the T/C under setting [2] was 96 % of control.

Turning to `C(=C\c1ccnnc1)/c1ccccc1`, the T/C is, setting by setting: under setting [6], 97 % of control; under setting [7], 106 % of control; under setting [8], 101 % of control.

Turning to `C[C@]12CCC(=O)N[C@@H]1CC[C@@H]1[C@@H]2CC[C@]2(C)[C@@H](OC(=O)COc3ccc(N(CCCl)CCCl)cc3)CC[C@@H]12`, the T/C (dose: 2.5 mg/kg/injection, schedule: Q01DX005 (ip), vehicle: saline with Tween-80) is 116 % of control; the T/C (dose: 10.0 mg/kg/injection, schedule: Q01DX005 (ip), vehicle: saline with Tween-80) is 155 % of control; the T/C (dose: 15.0 mg/kg/injection, schedule: Q01DX005 (ip), vehicle: saline with Tween-80) is 181 % of control; the T/C (dose: 20.0 mg/kg/injection, schedule: Q01DX005 (ip), vehicle: saline with Tween-80) was 192 % of control; the T/C (dose: 30.0 mg/kg/injection, schedule: Q01DX005 (ip), vehicle: saline with Tween-80) was 220 % of control.

For `C=C1C(=O)O[C@@H]2/C=C(\C)CC/C=C(/COC(C)=O)C[C@@H](OC(C)=O)[C@@H]12`, the T/C runs as follows: (dose: 6.25 mg/kg/injection, schedule: Q01DX009 (ip), vehicle: saline with Tween-80) 97 % of control; (dose: 9.0 mg/kg/injection, schedule: Q01DX009 (ip), vehicle: acetone) 106 % of control; (dose: 12.5 mg/kg/injection, schedule: Q01DX009 (ip), vehicle: saline with Tween-80) 103 % of control; (dose: 18.0 mg/kg/injection, schedule: Q01DX009 (ip), vehicle: acetone) 106 % of control; under setting [9], 106 % of control; (dose: 36.0 mg/kg/injection, schedule: Q01DX009 (ip), vehicle: acetone) 109 % of control. Moreover, the T/C (dose: 72.0 mg/kg/injection, schedule: Q01DX009 (ip), vehicle: acetone) was 124 % of control.

As for `CC(C)(C=O)CNC(C)(C)C`, the T/C reads like this: under setting [9], 110 % of control; under setting [3], 100 % of control and 108 % of control; under setting [4], 103 % of control and 105 % of control; under setting [5], 91 % of control and 103 % of control.

On to `CCOC(=O)NNS(=O)(=O)CCC(N)C(=O)O` (configuration not stated), for which the T/C reads like this: (dose: 12.5 mg/kg/injection, schedule: Q01DX009 (ip), vehicle: water) 98 % of control; (dose: 25.0 mg/kg/injection, schedule: Q01DX009 (ip), vehicle: water) 88 % of control and 95 % of control; (dose: 50.0 mg/kg/injection, schedule: Q01DX009 (ip), vehicle: water) 87 % of control and 90 % of control; (dose: 100.0 mg/kg/injection, schedule: Q01DX009 (ip), vehicle: water) 93 % of control; (dose: 200.0 mg/kg/injection, schedule: Q01DX009 (ip), vehicle: water) 109 % of control and 86 % of control; (dose: 400.0 mg/kg/injection, schedule: Q01DX009 (ip), vehicle: water) 111 % of control.

As for `O=[n+]1c2ccccc2n([O-])c2ccccc21.[Cl][Ni][Cl]`, the T/C runs as follows: (dose: 6.25 mg/kg/injection, schedule: Q04DX003 (ip), vehicle: saline with Tween-80) 102 % of control and 94 % of control; (dose: 12.5 mg/kg/injection, schedule: Q04DX003 (ip), vehicle: saline with Tween-80) 111 % of control and 121 % of control; (dose: 25.0 mg/kg/injection, schedule: Q04DX003 (ip), vehicle: saline with Tween-80) 115 % of control and 121 % of control; (dose: 50.0 mg/kg/injection, schedule: Q04DX003 (ip), vehicle: saline with Tween-80) 114 % of control.

In the case of `N#CCc1csc2ccccc12`, the T/C was 117 % of control under setting [10]; 115 % of control under setting [11]; 112 % of control (dose: 200.0 mg/kg/injection, schedule: Q01DX005 (ip), vehicle: Klucel (hydroxypropylcellulose) (HPC)).

As for `CC1(C)NC(=O)N(Br)C1=O`, the T/C is 104 % of control under setting [3], 100 % of control under setting [4] and 104 % of control under setting [5].

As for `CC(N)c1ccccc1` (configuration not stated) (tested in a mixture with another compound), the T/C runs as follows: under setting [3], 104 % of control; under setting [4], 99 % of control; under setting [5], 99 % of control.

For `COc1ccc(C(CC(=O)N(CCCl)CCCl)CC(=O)N(CCCl)CCCl)cc1`, the T/C was 108 % of control (dose: 100.0 mg/kg/injection, schedule: Q01DX001 (ip), vehicle: suspension in saline) and 119 % of control (dose: 200.0 mg/kg/injection, schedule: Q01DX001 (ip), vehicle: suspension in saline).

For `Nc1cccc(NCc2ccncc2)n1`, the T/C reads like this: (dose: 6.25 mg/kg/injection, schedule: Q01DX005 (ip), vehicle: Klucel (hydroxypropylcellulose) (HPC)) 98 % of control and 99 % of control and 100 % of control; under setting [12], 100 % of control and 101 % of control and 94 % of control; under setting [13], 100 % of control (2×) and 96 % of control; under setting [11], 113 % of control.

As for `NC(=O)NN(Cc1ccc(Br)cc1)N=O`, the T/C is 96 % of control (dose: 100.0 mg/kg/injection, schedule: Q01DX001 (ip), vehicle: Klucel (hydroxypropylcellulose) (HPC)); 97 % of control (dose: 200.0 mg/kg/injection, schedule: Q01DX001 (ip), vehicle: Klucel (hydroxypropylcellulose) (HPC)); 97 % of control (dose: 400.0 mg/kg/injection, schedule: Q01DX001 (ip), vehicle: Klucel (hydroxypropylcellulose) (HPC)).

On to `C[N+]1=C(/C=C/Nc2cccc(N/C=C/C3=[N+](C)c4ccccc4C3(C)C)c2)C(C)(C)c2ccccc21`, for which the T/C is 97 % of control under setting [12], 97 % of control under setting [13] and 105 % of control under setting [10].

Turning to `CCc1ccc2c(c1)C(O)(c1ccccc1)c1ccccc1C2(O)c1ccccc1` (configuration not stated), the T/C was 95 % of control under setting [3], 94 % of control under setting [4] and 93 % of control under setting [5].

Take `COC1/C=C/OC2(C)Oc3c(C)c(O)c4c(O)c(c(/C=N/N5CCCN(C)CC5)c(O)c4c3C2=O)NC(=O)/C(C)=C\C=C\C(C)C(O)C(C)C(O)C(C)C(OC(C)=O)C1C` (configuration not stated): the T/C under setting [3] is 104 % of control, the T/C under setting [4] was 100 % of control and the T/C under setting [5] was 102 % of control.

With `Oc1cccnc1Cl`, the T/C is, setting by setting: under setting [9], 110 % of control; under setting [3], 114 % of control; under setting [4], 114 % of control; under setting [7], 102 % of control; under setting [5], 119 % of control; under setting [8], 101 % of control. In addition, the T/C (dose: 400.0 mg/kg/injection, schedule: Q01DX009 (ip), vehicle: saline) is 108 % of control.

`O=C(O)CS(=O)(=O)CCCCS(=O)(=O)CC(=O)O`: the T/C runs as follows: under setting [6], 104 % of control; under setting [7], 103 % of control; under setting [8], 100 % of control.

In the case of `O=C(O)c1ccc(NC(=O)C2C(=O)C(=O)N(c3ccc(C(=O)O)cc3)C2=O)cc1` (configuration not stated), the T/C by setting is: under setting [1], 104 % of control; (dose: 100.0 mg/kg/injection, schedule: Q01DX009 (ip), vehicle: Klucel (hydroxypropylcellulose) (HPC)) 100 % of control; (dose: 200.0 mg/kg/injection, schedule: Q01DX009 (ip), vehicle: Klucel (hydroxypropylcellulose) (HPC)) 103 % of control.

Values taken from PubChem BioAssay AID330 (DTP/NCI, 2004).
